Results taken from patent publication US20260325617A1, “INKT Cell Modulator Liposomal Compositions and Methods of Use” (priority 2023, published 2026).
Values joined by “and” are separate entries in the source; they are usually repeats but may differ in a detail not shown here. Equal values may be shown once. Read-outs that look alike come from different tables or passages of the source.

Key:
[1] = Mouse pharmacokinetics of IMM60 after i.v. liposomal or soluble IMM60 (Example 7); assay type: in vivo, mouse (C57BL/6 and CD1)
Procedure: The two strains of mice that were compared were CD1 mice (not to be confused with CD1d-KO mice) and C57BL/mice. The half-life, volume of distribution, clearance, AUC, and Cmax were calculated using the one-compartmental model with first-order kinetics.
Lipid formulation: DSPG:DSPC:IMM60 (3.44:4.37:1 mg/ml) in a 250 mM sucrose, 145 mM NaCl, 10 mM sodium phosphate, pH 6.5 buffer. Before use, Vials of liposomal IMM60 were thawed at room temperature (21° C.-22° C.), then heated to 55° C. for 10 minutes using a heated water bath. Vials were mixed by inversion six times, cooled to room temperature, and diluted to either 100 ng/ml or 10,000 ng/ml using injection grade saline (0.9% NaCl).
Soluble IMM60: Lyophilized material was resuspended in Chloroform:methanol:water (10:10:3) to 10 mg/ml (vials of 100 μg in 10 μl) swirled around to capture all the material and then Vehicle solution (150 mM NaCl, 0.5% Tween20 in distilled water) added quickly to a final concentration of 100 μg/ml (for 100 μg in 10 μl, added 990 μl of Vehicle), then then heated to 80-90° C. for 5 minutes, and sonicated with a waterbath sonicator for 5 minutes. Samples were diluted to 10,000 ng/ml using injection grade saline.
Mice were warmed up for 20-30 minutes in cages place in a 37° C. heating chamber. Mice within each group were injected intravenously, using 27G insulin syringe needles, with 100 μl (C57BL/mice) or 150 μl (CD-1 mice) of the recorded dose over approximately 4 seconds.
Plasma samples were analyzed by LC/MS/MS at Frontage Laboratories. […] The method uses alpha GalCer (analog to IMM60) as an internal standard and the mass spectroctoscopic ionization is electrospray in the positive ionization mode. The range of calibration standards is between 1 ng/mL to 1000 ng/mL IMM60 in mouse plasma.
Plasma concentrations were measured 10 and 180 minutes after IV administration. The half-life, clearance, and AUC(0-∞) were calculated using the one-compartmental model with first-order kinetics since only two time points were samples along the PK profile. Using these assumptions allow for the calculation of PK parameters. Other assumption is that the T10 minutes is substituted for T0 and C10 minutes is substituted for C0 and Cmax to solve for PK parameters of liposomal IMM60.
Statistical Calculations: the mean, standard deviation (SD), standard error of the mean (SE), p-value from the t-test (equal or unequal variances) was calculated using Microsoft Excel 201 (Microsoft Corporation). Equal or unequal variances were chosen based on use of the F-test function. All t-test comparisons were performed with the 1000 ng IMM60 in liposome form as the control. Half-life T(1/2) in Mouse of IMM60: The half-life for mice of IMM60 is calculated using Equation 1 using the one-compartment model with 1st order kinetics.

[2] = system: iNKT cells / immune cells; assay: PD-1 / PD-L1 upregulation on immune cells by soluble IMM60
[3] = individual mouse, C57BL/6, 1000 ng i.v., listed as IMM60 soluble
[4] = individual mouse, CD1, 1500 ng i.v., listed as IMM60 soluble

In the case of `CCCCCCCCCCCCCCCCCCCCCCCCCC(=O)N[C@@H](CO[C@H]1CC[C@H](O)[C@H](O)[C@H]1O)[C@H](O)[C@H](O)CCCCCCCCCCCCCC` [soluble IMM60], the Cmax ([1]; individual mouse, C57BL/6, 1000 ng i.v., 10 min, listed as IMM60 soluble) is reported as 87.7 ng/mL, the “AUC(0-∞)” value [1, 3] is reported as 12,418 ng/ml/min and the Vd [1, 3] is reported as 0.0114 L. The half-life [1, 3] was 1.636 h, the Cmax ([1]; individual mouse, CD1, 1500 ng i.v., 10 min, listed as IMM60 soluble) was 105.0 ng/mL and the “AUC(0-∞)” value [1, 4] was 17,976 ng/ml/min. For the same compound, the Vd [1, 4] was 0.01429 L, the half-life [1, 4] was 1.9773 h and the “Half-life and volume of distribution vs liposomal” value ([1]; mice) was “longer half-life and larger volume of distribution”. For the same compound, the AUC(0-inf) ([1]; mouse, plasma, iv, 0.001 mg, average, C57BL/6, 1000 ng i.v.) was 204 ng·h/mL, the Cmax at 10 min ([1]; mouse, plasma, iv, 0.001 mg, average, C57BL/6, 1000 ng i.v., 10 min) was 89.7 ng/mL and the clearance ([1]; mouse, plasma, iv, 0.001 mg, average, C57BL/6, 1000 ng i.v., read-out: Clearance) was 0.08 mL/min. It also gave a half-life ([1]; mouse, plasma, iv, 0.001 mg, average, C57BL/6, 1000 ng i.v., read-out: Half-life) of 1.58 h, a Vd ([1]; mouse, plasma, iv, 0.001 mg, average, C57BL/6, 1000 ng i.v., read-out: Vd) of 0.0112 L and an AUC(0-inf) ([1]; mouse, plasma, iv, 0.001 mg, individual mouse, C57BL/6, 1000 ng i.v.) of 201 ng·h/mL. For the same compound, the Cmax at 10 min ([1]; mouse, plasma, iv, 0.001 mg, individual mouse, C57BL/6, 1000 ng i.v., 10 min) was 91.7 ng/mL, the clearance ([1]; mouse, plasma, iv, 0.001 mg, individual mouse, C57BL/6, 1000 ng i.v., read-out: Clearance) was 0.08 mL/min and the half-life ([1]; mouse, plasma, iv, 0.001 mg, individual mouse, C57BL/6, 1000 ng i.v., read-out: Half-life) was 1.52 h. It also gave a Vd ([1]; mouse, plasma, iv, 0.001 mg, individual mouse, C57BL/6, 1000 ng i.v., read-out: Vd) of 0.0109 L, an AUC(0-inf) ([1]; mouse, plasma, iv, 0.0015 mg, average, CD1, 1500 ng i.v.) of 269 ng·h/mL and a Cmax at 10 min ([1]; mouse, plasma, iv, 0.0015 mg, average, CD1, 1500 ng i.v., 10 min) of 83.7 ng/mL. The clearance ([1]; mouse, plasma, iv, 0.0015 mg, average, CD1, 1500 ng i.v., read-out: Clearance) was 0.09 mL/min, the half-life ([1]; mouse, plasma, iv, 0.0015 mg, average, CD1, 1500 ng i.v., read-out: Half-life) was 2.32 h and the Vd ([1]; mouse, plasma, iv, 0.0015 mg, average, CD1, 1500 ng i.v., read-out: Vd) was 0.0192 L. The AUC(0-inf) ([1]; mouse, plasma, iv, 0.0015 mg, individual mouse, CD1, 1500 ng i.v.) was 239 ng·h/mL, the Cmax at 10 min ([1]; mouse, plasma, iv, 0.0015 mg, individual mouse, CD1, 1500 ng i.v., 10 min) was 62.4 ng/mL and the clearance ([1]; mouse, plasma, iv, 0.0015 mg, individual mouse, CD1, 1500 ng i.v., read-out: Clearance) was 0.1 mL/min. The half-life ([1]; mouse, plasma, iv, 0.0015 mg, individual mouse, CD1, 1500 ng i.v., read-out: Half-life) was 2.66 h, the Vd ([1]; mouse, plasma, iv, 0.0015 mg, individual mouse, CD1, 1500 ng i.v., read-out: Vd) was 0.024 L and the AUC(0-inf) ([1]; mouse, plasma, iv, 0.05 mg/kg, C57BL and CD1 strains, high dose) was 204 to 269 ng·h/mL. For the same compound, the clearance ([1]; mouse, plasma, iv, 0.05 mg/kg, C57BL and CD1 strains, high dose, read-out: Clearance) was 3.1 to 4.1 mL/min/kg, the Cmax ([1]; mouse, plasma, iv, 0.05 mg/kg, C57BL and CD1 strains, high dose, read-out: Cmax) was 84 to 90 ng/mL and the half-life ([1]; mouse, plasma, iv, 0.05 mg/kg, C57BL and CD1 strains, high dose, read-out: Half life T1/2) was 1.58 to 2.32 h. For the same compound, the Vd ([1]; mouse, plasma, iv, 0.05 mg/kg, C57BL and CD1 strains, high dose, read-out: Volume of distribution Vd) was 0.558 to 0.639 L/kg, the AUC(0-inf) ([1]; mouse, plasma, iv, 0.05 mg/kg, mean ± SE, 1000 ng (50 μg/kg) i.v.) was 204 ng·h/mL and the clearance ([1]; mouse, plasma, iv, 0.05 mg/kg, mean ± SE, 1000 ng (50 μg/kg) i.v., read-out: Cl) was 0.08 mL/min and 4.09 mL/min/kg. It also gave a Cmax ([1]; mouse, plasma, iv, 0.05 mg/kg, mean ± SE, 1000 ng (50 μg/kg) i.v., read-out: Cmax) of 90 ± 2 ng/mL, a Vd ([1]; mouse, plasma, iv, 0.05 mg/kg, mean ± SE, 1000 ng (50 μg/kg) i.v., read-out: Vd) of 0.558 ± 0.012 L/kg and a half-life ([1]; mouse, plasma, iv, 0.05 mg/kg, mean ± SE, 1000 ng (50 μg/kg) i.v., read-out: t1/2) of 1.57 ± 0.06 h. The AUC(0-inf) ([1]; mouse, plasma, iv, 0.05 mg/kg, mean ± SE, 1500 ng (50 μg/kg) i.v.) was 269 ng·h/mL, the clearance ([1]; mouse, plasma, iv, 0.05 mg/kg, mean ± SE, 1500 ng (50 μg/kg) i.v., read-out: Cl) was 0.09 mL/min and 3.13 mL/min/kg and the Cmax ([1]; mouse, plasma, iv, 0.05 mg/kg, mean ± SE, 1500 ng (50 μg/kg) i.v., read-out: Cmax) was 84 ± 21 ng/mL. The Vd ([1]; mouse, plasma, iv, 0.05 mg/kg, mean ± SE, 1500 ng (50 μg/kg) i.v., read-out: Vd) was 0.639 ± 0.163 L/kg, the half-life ([1]; mouse, plasma, iv, 0.05 mg/kg, mean ± SE, 1500 ng (50 μg/kg) i.v., read-out: t1/2) was 2.32 ± 0.34 h and the “PD-1 on iNKT cells” value [2] was “upregulate the levels of PD-1 on iNKT cells”. For the same compound, the “PD-L1 on a variety of immune cells” value [2] was “upregulates expression of PD-L1”.
